For this assay, the target named is T1, rat mGluR5 (Rattus norvegicus, UniProt P31424).
T1 construct: expressed in transfected cells; host or cells: human embryonic kidney (HEK) cells
Put plainly: Potentiation of glutamate response, Ca2+ fluorescence (FDSS) in HEK cells transfected with rat mGluR5. The assay is classed as cell-based. The following applies: Table 1; potentiation of mGluR5 response to glutamate; read-out: EC50. The protocol:
Human embryonic kidney (HEK) cells transfected with rat mGluR5 were plated in clear bottom assay plates for assay in a Functional Drug Screening System (FDSS). The cells were loaded with a Ca^2+-sensitive fluorescent dye (e.g., Fluo-4), and the plates were washed and placed in the FDSS instrument. After establishment of a fluorescence baseline for twelve seconds, the compounds of the present invention were added to the cells, and the response in cells was measured. Five minutes later, an mGluR5 agonist (e.g., glutamate, 3,5-dihydroxyphenylglycine, or quisqualate) was added to the cells, and the response of the cells was measured. Potentiation of the agonist response of mGluR5 by the compounds in the present invention was observed as an increase in response to non-maximal concentrations of agonist (here, glutamate) in the presence of compound compared to the response to agonist in the absence of compound.
The above described assay operated in two modes. In the first mode, a range of concentrations of the present compounds were added to cells, followed by a single fixed concentration of agonist. If a compound acted as a potentiator, an EC50 value for potentiation and a maximum extent of potentiation by the compound at this concentration of agonist was determined by non-linear curve fitting. In the second mode, several fixed concentrations of the present compounds were added to various wells on a plate, followed by a range of concentrations of agonist for each concentration of present compound; the EC50 values for the agonist at each concentration of compound were determined by non-linear curve fitting. A decrease in the EC50 value of the agonist with increasing concentrations of the present compounds (a leftward shift of the agonist concentration-response curve) is an indication of the degree of mGluR5 potentiation at a given concentration of the present compound. An increase in the EC50 value of the agonist with increasing concentrations of the present compounds (a rightward shift of the agonist concentration-response curve) is an indication of the degree of mGluR5 antagonism at a given concentration of the present compound. The second mode also indicates whether the present compounds also affect the maximum response to mGluR5 to agonists.

Broadly, the EC50 is the concentration that produces a half-maximal response.

T1 sequence (P31424 21-1203): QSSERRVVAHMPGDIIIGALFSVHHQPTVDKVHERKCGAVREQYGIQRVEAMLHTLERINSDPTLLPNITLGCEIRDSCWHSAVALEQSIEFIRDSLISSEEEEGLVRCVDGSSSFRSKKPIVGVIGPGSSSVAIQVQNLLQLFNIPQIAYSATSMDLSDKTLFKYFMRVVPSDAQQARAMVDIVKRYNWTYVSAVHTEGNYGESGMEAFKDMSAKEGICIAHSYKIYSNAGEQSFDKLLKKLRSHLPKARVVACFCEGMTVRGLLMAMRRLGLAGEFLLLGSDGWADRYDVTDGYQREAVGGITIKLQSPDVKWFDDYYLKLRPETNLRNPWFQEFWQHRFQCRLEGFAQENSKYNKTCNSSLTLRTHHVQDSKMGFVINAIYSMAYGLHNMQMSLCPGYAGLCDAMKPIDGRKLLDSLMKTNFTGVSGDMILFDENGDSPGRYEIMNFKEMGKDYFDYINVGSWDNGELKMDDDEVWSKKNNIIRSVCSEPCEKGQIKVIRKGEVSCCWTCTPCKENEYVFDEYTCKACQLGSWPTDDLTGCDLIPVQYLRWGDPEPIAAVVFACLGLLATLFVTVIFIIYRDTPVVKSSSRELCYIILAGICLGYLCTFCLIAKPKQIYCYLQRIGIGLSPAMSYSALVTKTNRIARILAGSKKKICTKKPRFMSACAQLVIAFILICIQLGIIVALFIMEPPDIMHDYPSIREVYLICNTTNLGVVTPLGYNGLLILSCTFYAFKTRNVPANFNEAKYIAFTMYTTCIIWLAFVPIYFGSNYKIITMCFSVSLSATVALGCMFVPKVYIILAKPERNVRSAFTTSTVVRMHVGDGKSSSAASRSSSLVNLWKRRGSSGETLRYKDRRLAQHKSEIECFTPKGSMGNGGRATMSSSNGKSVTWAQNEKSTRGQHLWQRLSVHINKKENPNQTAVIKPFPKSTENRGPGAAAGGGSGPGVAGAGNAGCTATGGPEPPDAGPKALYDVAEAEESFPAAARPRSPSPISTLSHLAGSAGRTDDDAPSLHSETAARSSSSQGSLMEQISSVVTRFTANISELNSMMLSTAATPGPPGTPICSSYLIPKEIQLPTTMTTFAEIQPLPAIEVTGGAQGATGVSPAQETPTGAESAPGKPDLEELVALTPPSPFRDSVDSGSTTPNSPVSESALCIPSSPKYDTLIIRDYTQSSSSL

For the compound `O=C(NC1CCC1)c1ccc(OCc2cccc(F)c2)nc1` [Example 1.2c.19], the EC50 was determined as 120 nM.

`O=C(NC1CCOCC1)c1ccc(OCc2cccc(F)c2)nc1` [Example 1.2c.20]: the EC50 came out at 1600 nM.

For `O=C(Nc1ccc(F)cc1F)c1ccc(OCc2cccc(F)c2)nc1` [Example 1.2c.21], the EC50 was determined as 76 nM.

`O=C(Nc1ccccn1)c1ccc(OCc2ccc(F)cc2)nc1` [Example 1.2d.1]: the EC50 came out at 1300 nM.

In the case of `O=C(Nc1ccc(F)cc1F)c1ccc(OCc2ccc(F)cc2)nc1` [Example 1.2d.2], the EC50 was 210 nM.

On to `O=C(Nc1ccc(F)cn1)c1ccc(OCc2ccc(F)cc2)nc1` [Example 1.2d.3], for which the half-maximal effective concentration (EC50) was determined as 510 nM.

As to `CC(C)(C)CCNC(=O)c1ccc(OCc2ccc(F)cc2)nc1` [Example 1.2d.4], the concentration for a half-maximal effect (EC50) came to 690 nM.

With `CC(C)(C)CCNC(=O)c1ccc(OCc2cc(F)cc(F)c2)nc1` [Example 1.2e.1], the EC50 came out at 1100 nM.

Consider `O=C(Nc1ccccn1)c1ccc(OCc2ccccc2F)nc1` [Example 1.2f.1], for which the concentration for a half-maximal effect (EC50) amounted to 300 nM.

For `O=C(NC1CCC1)c1ccc(OCc2ccccc2F)nc1` [Example 1.2f.2], the concentration for a half-maximal effect (EC50) was 270 nM.

Turning to `O=C(NC1CCCCC1)c1ccc(OCc2ccccc2F)nc1` [Example 1.2f.3], the concentration for a half-maximal effect (EC50) is 110 nM.

Regarding `Cc1cccc(COc2ccc(C(=O)Nc3ccccn3)cn2)c1` [Example 1.2g.1], the EC50 stood at 240 nM.

For `Cc1cccc(COc2ccc(C(=O)NC3CCC3)cn2)c1` [Example 1.2g.2], the EC50 came out at 120 nM.

For `Cc1cccc(COc2ccc(C(=O)NC3CCCCC3)cn2)c1` [Example 1.2g.3], the EC50 was 100 nM.

As to `O=C(Nc1ccccn1)c1ccc(OCc2cccnc2)nc1` [Example 1.2h.1], the EC50 turned out to be 2900 nM.

In the case of `O=C(Nc1ccccn1)c1ccc(OCc2ccncc2)nc1` [Example 1.2i.2], the EC50 is at least 10000 nM.

Take `O=C(NC1CCCCC1)c1ccc(OCc2ccncc2)nc1` [Example 1.2i.3]: the EC50 amounted to 1200 nM.

As for `O=C(Nc1ccc(F)cc1F)c1ccc(OCc2ccncc2)nc1` [Example 1.2i.4], the EC50 was 810 nM.

As for `C[C@@H](NC(=O)c1ccc(OCc2ccncc2)nc1)C1CC1` [Example 1.2i.5], the EC50 amounted to 4800 nM.

For the compound `CCCCOc1ccc(C(=O)NC2CCCCC2)cn1` [Example 1.2j.2], the EC50 is 2400 nM.

As for `CCCCOc1ccc(C(=O)NC(C)(C)C)cn1` [Example 1.2j.3], the EC50 is at least 10000 nM.

`CCCCOc1ccc(C(=O)Nc2ccc(F)cn2)cn1` [Example 1.2j.4]: the half-maximal effective concentration (EC50) was found to be 1500 nM.

As for `CCCCOc1ccc(C(=O)Nc2ccccc2)cn1` [Example 1.2j.5], the EC50 is 650 nM.

As for `CCCCOc1ccc(C(=O)N[C@H](C)C2CCCCC2)cn1` [Example 1.2j.6], the EC50 was found to be 1500 nM.

With `CCCCOc1ccc(C(=O)NC2CCCCCC2)cn1` [Example 1.2j.7], the EC50 came out at 2200 nM.

Regarding `Cc1nc(OCc2cccc(F)c2)ccc1C(=O)N[C@H](C)C1CCCCC1` [Example 1.2m.2], the half-maximal effective concentration (EC50) is 870 nM.

Turning to `Cc1nc(OCc2cccc(F)c2)ccc1C(=O)NC1CCCCC1` [Example 1.2m.3], the EC50 worked out at 610 nM.

`Cc1nc(OCc2ccncc2)ccc1C(=O)NCCC(C)(C)C` [Example 1.2n.1]: the EC50 came out at 3400 nM.

On to `Cc1nc(OCc2ccncc2)ccc1C(=O)N[C@H](C)C1CCCCC1` [Example 1.2n.2], for which the EC50 came out at 800 nM.

Turning to `O=C(NC1CCCCC1)c1ccc(OCC2CCCC2)nc1` [Example 2.3a.4], the half-maximal effective concentration (EC50) amounted to 710 nM.

With `O=C(NC1CCCCC1)c1ccc(OCc2ccc(F)cc2)nc1` [Example 2.3a.6], the EC50 came out at 750 nM.

As to `N#Cc1cccc(COc2ccc(C(=O)NC3CCCCC3)cn2)c1` [Example 2.3a.7], the EC50 was 95 nM.

As for `O=C(NC1CCCCC1)c1ccc(OCc2ccsc2)nc1` [Example 2.3a.8], the EC50 came out at 120 nM.

Turning to `O=C(NC1CCCCC1)c1ccc(OCc2nccs2)nc1` [Example 2.3a.9], the concentration giving a half-maximal response (EC50) worked out at 3100 nM.

With `Cc1ccc(COc2ccc(C(=O)NC3CCC3)cn2)cc1` [Example 2.3b.1], the EC50 was found to be 1800 nM.

As for `O=C(NC1CCC1)c1ccc(OCc2ccc(F)cc2)nc1` [Example 2.3b.2], the EC50 stood at 1200 nM.

Consider `CC(C)(C)CCNC(=O)c1ccc(OCc2cccnc2)nc1` [Example 2.3c.1], for which the EC50 worked out at 2900 nM.

Take `CC(C)(C)CCNC(=O)c1ccc(OCc2ccncc2)nc1` [Example 2.3c.2]: the EC50 stood at 420 nM.

These data come from patent US20110183980A1, “O-BENZYL NICOTINAMIDE ANALOGS AS MGLUR5 POSITIVE ALLOSTERIC MODULATORS” (priority 2009, published 2011).
